Measurements reported in patent US9346809B2 (LEO PHARMA A/S, priority 2009, dated 2016).
Read-outs that look alike come from different tables or passages of the source.

Tests used:
Type in all cases: biochemical
[1] = target: T1, JAK1 (aa 850-1154, catalytic domain, GST-tag) (Homo sapiens, UniProt P23458); test: JAK kinase assay (HTRF, phosphorylation of TK substrate-biotin), JAK1; conditions: ATP at Km (7 μM)
T1 construct: JAK1 (aa 850-1154) and TYK2 (aa 871-1187) are expressed with an N-terminally fused GST-tag; GST (N); purchased Carna Biosciences, Inc; host or cells: baculovirus expression system
T1 sequence (P23458 850-1154): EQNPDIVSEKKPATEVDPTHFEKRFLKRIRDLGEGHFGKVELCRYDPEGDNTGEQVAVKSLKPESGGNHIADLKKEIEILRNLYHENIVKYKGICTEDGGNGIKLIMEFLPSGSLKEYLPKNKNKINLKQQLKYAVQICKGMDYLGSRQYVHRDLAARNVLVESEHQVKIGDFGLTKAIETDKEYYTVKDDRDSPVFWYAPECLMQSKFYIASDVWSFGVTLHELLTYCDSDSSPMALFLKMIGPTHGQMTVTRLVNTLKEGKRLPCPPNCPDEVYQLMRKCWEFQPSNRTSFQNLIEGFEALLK
Procedure, shortened: (§1)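 EC50 values come from HTRF signal of phospho-peptide detected by STK Ab Cryptate and Streptavidin-XL665 after overnight incubation. Reactions ran 20-30 min at RT in Hepes pH 7.0, 0.01% BSA, 1 mM DTT, with ATP at Km: 7, 4, 2 and 13 μM for JAK1, JAK2, JAK3, TYK2.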

[2] = target: T2, JAK2 (catalytic domain, His-tag) (Homo sapiens, UniProt O60674); test: JAK kinase assay (HTRF, phosphorylation of TK substrate-biotin), JAK2; conditions: ATP at Km (4 μM)
T2 construct: All four purified enzymes contain only the catalytic domain; His (N); purchased Carna Biosciences, Inc; host or cells: baculovirus expression system
T2 sequence (O60674 849-1124 limits assumed): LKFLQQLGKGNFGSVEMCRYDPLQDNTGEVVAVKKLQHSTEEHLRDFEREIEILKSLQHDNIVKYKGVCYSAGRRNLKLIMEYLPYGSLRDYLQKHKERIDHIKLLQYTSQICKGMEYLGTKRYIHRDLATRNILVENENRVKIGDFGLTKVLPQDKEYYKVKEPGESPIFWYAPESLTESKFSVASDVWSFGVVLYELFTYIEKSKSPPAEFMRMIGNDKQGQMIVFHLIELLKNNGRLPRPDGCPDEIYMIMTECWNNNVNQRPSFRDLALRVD
Procedure, shortened: as §1

[3] = target: T3, JAK3 (catalytic domain, His-tag) (Homo sapiens, UniProt P52333); test: JAK kinase assay (HTRF, phosphorylation of TK substrate-biotin), JAK3; conditions: ATP at Km (2 μM)
T3 construct: All four purified enzymes contain only the catalytic domain; His (N); purchased Carna Biosciences, Inc; host or cells: baculovirus expression system
T3 sequence (P52333 822-1111 limits assumed): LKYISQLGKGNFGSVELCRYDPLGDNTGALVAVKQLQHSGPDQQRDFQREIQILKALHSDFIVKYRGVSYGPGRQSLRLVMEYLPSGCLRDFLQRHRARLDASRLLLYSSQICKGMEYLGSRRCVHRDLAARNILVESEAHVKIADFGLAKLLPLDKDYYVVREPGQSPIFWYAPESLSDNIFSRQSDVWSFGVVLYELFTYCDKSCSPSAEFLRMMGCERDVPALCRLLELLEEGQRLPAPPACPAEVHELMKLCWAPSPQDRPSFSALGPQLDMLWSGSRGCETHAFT
Procedure, shortened: as §1

[4] = target: T4, TYK2 (aa 871-1187, catalytic domain, GST-tag) (Homo sapiens, UniProt P29597); test: JAK kinase assay (HTRF, phosphorylation of TK substrate-biotin), TYK2; conditions: ATP at Km (13 μM)
T4 construct: JAK1 (aa 850-1154) and TYK2 (aa 871-1187) are expressed with an N-terminally fused GST-tag; GST (N); purchased Carna Biosciences, Inc; host or cells: baculovirus expression system
T4 sequence (P29597 871-1187): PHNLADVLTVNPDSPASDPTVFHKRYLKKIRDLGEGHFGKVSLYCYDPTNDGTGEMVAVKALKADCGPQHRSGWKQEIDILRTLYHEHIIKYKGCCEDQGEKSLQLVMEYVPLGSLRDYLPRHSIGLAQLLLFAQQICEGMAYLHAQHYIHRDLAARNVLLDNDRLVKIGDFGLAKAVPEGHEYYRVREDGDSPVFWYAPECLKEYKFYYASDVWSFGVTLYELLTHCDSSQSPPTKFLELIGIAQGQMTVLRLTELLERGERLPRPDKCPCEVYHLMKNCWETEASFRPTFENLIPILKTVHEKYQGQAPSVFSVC
Procedure, shortened: as §1

[5] = read-out: JAK1 kinase inhibitory activity (EC50 indicator)
[6] = read-out: JAK2 kinase inhibitory activity (EC50 indicator)
[7] = read-out: JAK3 kinase inhibitory activity (EC50 indicator)
[8] = read-out: TYK2 kinase inhibitory activity (EC50 indicator)
[9] = HTRF assay, read-out: JAK1 kinase inhibitory activity (EC50 indicator)
[10] = HTRF assay, read-out: JAK2 kinase inhibitory activity (EC50 indicator)
[11] = HTRF assay, read-out: JAK3 kinase inhibitory activity (EC50 indicator)
[12] = HTRF assay, read-out: TYK2 kinase inhibitory activity (EC50 indicator)

Row | Structure (SMILES) | EC50 [1, 5] [nM] | EC50 [2, 6] [nM] | EC50 [3, 7] [nM] | EC50 [4, 8] [nM] | EC50 [1, 9] [nM] | EC50 [2, 10] [nM] | EC50 [3, 11] [nM] | EC50 [4, 12] [nM] | other results
1 | O=C(Oc1ccc(Cl)cc1)N1CCN(c2ncnc3[nH]ccc23)CC12CC2 [Example 446, 7-(7H-Pyrrolo[2,3-d]pyrimidin-4-yl)-4,7-diaza-spiro[2.5]octane-4-carboxylic acid 4-chloro-phenyl ester] | – | – | – | – | – | – | – | – | EC50 ([1]; HTRF assay, read-out: JAK1 kinase inhibitory activity (EC50)): < 100 nM; EC50 ([2]; HTRF assay, read-out: JAK2 kinase inhibitory activity (EC50)): < 100 nM; EC50 ([3]; HTRF assay, read-out: JAK3 kinase inhibitory activity (EC50)): 100 to 500 nM; EC50 ([4]; HTRF assay, read-out: TYK2 kinase inhibitory activity (EC50)): > 500 nM
2 | Cc1cc2[nH]c(C(=O)N3[C@@H]4CC[C@H]3CN(c3ncnc5[nH]ccc35)C4)cc2cc1F [Example 110, (5-Fluoro-6-methyl-1H-indol-2-yl)-[3-(7H-pyrrolo[2,3-d]pyrimidin-4-yl)-3,8-diaza-bicyclo[3.2.1]oct-8-yl]-methanone] | < 100 | 100 to 500 | 100 to 500 | > 500 | – | – | – | – | –
3 | COc1cnc2[nH]ccc2c1N1CCN(C(=O)c2cc3ccccc3s2)C2(CC2)C1 [Example 284, Benzo[b]thiophen-2-yl-[7-(5-methoxy-1H-pyrrolo[2,3-b]pyridin-4-yl)-4,7-diaza-spiro[2.5]oct-4-yl]-methanone] | – | – | – | – | > 500 | > 500 | > 500 | > 500 | –
4 | CC(=O)NCC(=O)N1CCN(c2ncnc3[nH]ccc23)CC12CC2 [Example 151, N-{2-Oxo-2-[7-(7H-pyrrolo[2,3-d]pyrimidin-4-yl)-4,7-diaza-spiro[2.5]oct-4-yl]-ethyl}-acetamide] | 100 to 500 | 100 to 500 | > 500 | > 500 | – | – | – | – | –
5 | CCOC(=O)N1[C@@H]2CC[C@H]1CN(c1ncnc3[nH]ccc13)C2 [Example 52, 3-(7H-Pyrrolo[2,3-d]pyrimidin-4-yl)-3,8-diazabicyclo[3.2.1]octane-8-carboxylic acid ethyl ester] | 100 to 500 | < 100 | 100 to 500 | 100 to 500 | – | – | – | – | –
6 | COCCOC(=O)N1[C@@H]2CC[C@H]1CN(c1ncnc3[nH]ccc13)C2 [Example 12, 3-(7H-Pyrrolo[2,3-d]pyrimidin-4-yl)-3,8-diazabicyclo[3.2.1]octane-8-carboxylic acid 2-methoxyethyl ester] | 100 to 500 | 100 to 500 | > 500 | > 500 | – | – | – | – | –
7 | N#Cc1cccc(C(=O)N2CCN(c3ncnc4[nH]cc(Cl)c34)CC23CC3)c1 [Example 316, 3-[7-(5-Chloro-7H-pyrrolo[2,3-d]pyrimidin-4-yl)-4,7-diaza-spiro[2.5]octane-4-carbonyl]-benzonitrile] | – | – | – | – | > 500 | 100 to 500 | 100 to 500 | > 500 | –
8 | O=C(Cc1ccccc1)N1CCN(c2ncnc3[nH]ccc23)CC12CC2 [Example 152, 2-Phenyl-1-[7-(7H-pyrrolo[2,3-d]pyrimidin-4-yl)-4,7-diaza-spiro[2.5]oct-4-yl]-ethanone] | < 100 | < 100 | < 100 | 100 to 500 | – | – | – | – | –
9 | O=C(Cc1cccs1)N1[C@@H]2CC[C@H]1CN(c1ncnc3[nH]ccc13)C2 [Example 109, 1-[3-(7H-Pyrrolo[2,3-d]pyrimidin-4-yl)-3,8-diaza-bicyclo[3.2.1]oct-8-yl]-2-thiophen-2-yl-ethanone] | < 100 | < 100 | 100 to 500 | > 500 | – | – | – | – | –
10 | O=C(c1cccc(-c2ccccc2)c1)N1[C@@H]2CC[C@@H]1CN(c1ncnc3[nH]ccc13)C2 [Example 178, Biphenyl-3-yl-[3-(7H-pyrrolo[2,3-d]pyrimidin-4-yl)-3,8-diaza-bicyclo[3.2.1]oct-8-yl]-methanone] | 100 to 500 | 100 to 500 | 100 to 500 | > 500 | – | – | – | – | –
11 | O=C(c1cc2ccccc2[nH]1)N1[C@@H]2CC[C@H]1CN(c1ncnc3[nH]ccc13)C2 [Example 348, (1H-Indol-2-yl)-[3-(7H-pyrrolo[2,3-d]pyrimidin-4-yl)-3,8-diaza-bicyclo[3.2.1]oct-8-yl]-methanone] | – | – | – | – | < 100 | < 100 | < 100 | > 500 | –
12 | NS(=O)(=O)c1cc(OCC(=O)N2CCN(c3ncnc4[nH]ccc34)CC23CC3)ccc1Cl [Example 102, 2-Chloro-5-{2-oxo-2-[7-(7H-pyrrolo[2,3-d]pyrimidin-4-yl)-4,7-diaza-spiro[2.5]oct-4-yl]-ethoxy}-benzenesulfonamide] | < 100 | < 100 | < 100 | 100 to 500 | – | – | – | – | –
13 | COc1cnc2[nH]ccc2c1N1CCN(C(=O)c2ccc(-c3ccccc3)s2)C2(CC2)C1 [Example 290, [7-(5-Methoxy-1H-pyrrolo[2,3-b]pyridin-4-yl)-4,7-diaza-spiro[2.5]oct-4-yl]-(5-phenyl-thiophen-2-yl)-methanone] | – | – | – | – | > 500 | > 500 | > 500 | > 500 | –

The next lines start with results.

Row | EC50 [1, 5] [nM] | EC50 [2, 6] [nM] | EC50 [3, 7] [nM] | EC50 [4, 8] [nM] | EC50 [1, 9] [nM] | EC50 [2, 10] [nM] | EC50 [3, 11] [nM] | EC50 [4, 12] [nM] | Structure (SMILES) | other results
14 | – | – | – | – | < 100 | < 100 | < 100 | 100 to 500 | CNS(=O)(=O)c1csc(C(=O)N2CCN(c3ncnc4[nH]ccc34)CC23CC3)c1C [Example 376, 4-Methyl-5-[7-(7H-pyrrolo[2,3-d]pyrimidin-4-yl)-4,7-diaza-spiro[2.5]octane-4-carbonyl]-thiophene-3-sulfonic acid methylamide] | –
15 | – | – | – | – | < 100 | < 100 | 100 to 500 | 100 to 500 | O=C(c1ccc(S(=O)(=O)CCO)cc1)N1CCN(c2ncnc3[nH]ccc23)CC12CC2 [Example 406, [4-(2-Hydroxy-ethanesulfonyl)-phenyl]-[7-(7H-pyrrolo[2,3-d]pyrimidin-4-yl)-4,7-diaza-spiro[2.5]oct-4-yl]-methanone] | –
16 | – | – | – | – | < 100 | < 100 | < 100 | 100 to 500 | Cc1cnc(C(=O)N2CCN(c3ncnc4[nH]ccc34)CC23CC3)cn1 [Example 414, (5-Methyl-pyrazin-2-yl)-[7-(7H-pyrrolo[2,3-d]pyrimidin-4-yl)-4,7-diaza-spiro[2.5]oct-4-yl]-methanone] | –
17 | – | – | – | – | < 100 | < 100 | > 500 | > 500 | N#CCCCS(=O)(=O)c1ccc(C(=O)N2CCN(c3ncnc4[nH]ccc34)CC23CC3)cc1 [Example 408, 4-{4-[7-(7H-Pyrrolo[2,3-d]pyrimidin-4-yl)-4,7-diaza-spiro[2.5]octane-4-carbonyl]-benzenesulfonyl}-butyronitrile] | –
18 | – | – | – | – | < 100 | < 100 | < 100 | < 100 | NS(=O)(=O)c1ccc(NC(=O)C(=O)N2CCN(c3ncnc4[nH]ccc34)CC23CC3)cc1 [Example 401, 2-Oxo-2-[7-(7H-pyrrolo[2,3-d]pyrimidin-4-yl)-4,7-diaza-spiro[2.5]oct-4-yl]-N-(4-sulfamoyl-phenyl)-acetamide] | –
19 | < 100 | < 100 | < 100 | > 500 | – | – | – | – | CS(=O)(=O)c1ccc(CC(=O)N2CCN(c3ncnc4[nH]ccc34)CC23CC3)cc1 [Example 107, 2-(4-Methanesulfonyl-phenyl)-1-[7-(7H-pyrrolo[2,3-d]pyrimidin-4-yl)-4,7-diaza-spiro[2.5]oct-4-yl]-ethanone] | –
20 | < 100 | < 100 | < 100 | < 100 | – | – | – | – | CNS(=O)(=O)c1ccc(C(=O)N2CCN(c3ncnc4[nH]ccc34)CC23CC3)cc1 [Example 104, N-Methyl-4-[7-(7H-pyrrolo[2,3-d]pyrimidin-4-yl)-4,7-diaza-spiro[2.5]octane-4-carbonyl]-benzenesulfonamide] | –
21 | – | – | – | – | < 100 | < 100 | < 100 | 100 to 500 | NS(=O)(=O)Cc1ccc(C(=O)N2CCN(c3ncnc4[nH]ccc34)CC23CC3)cc1 [Example 409, {4-[7-(7H-Pyrrolo[2,3-d]pyrimidin-4-yl)-4,7-diaza-spiro[2.5]octane-4-carbonyl]-phenyl}-methanesulfonamide] | –
22 | – | – | – | – | < 100 | < 100 | < 100 | < 100 | NS(=O)(=O)c1ccc(SCC(=O)N2CCN(c3ncnc4[nH]ccc34)CC23CC3)cc1 [Example 404, 4-{2-Oxo-2-[7-(7H-pyrrolo[2,3-d]pyrimidin-4-yl)-4,7-diaza-spiro[2.5]oct-4-yl]-ethylsulfanyl}-benzenesulfonamide] | –
